In ChEMBL document CHEMBL1145356, “Discovery of new C3aR ligands. Part 1: arginine derivatives” (Bioorg Med Chem Lett, 2007):

Legend:
[1] = target: T1, C3a anaphylatoxin chemotactic receptor (Homo sapiens, UniProt Q16581); experiment: Inhibition of human C3a receptor expressed on HMC1 cells by SPA assay; type: cell-based
T1 sequence (Q16581 whole entry): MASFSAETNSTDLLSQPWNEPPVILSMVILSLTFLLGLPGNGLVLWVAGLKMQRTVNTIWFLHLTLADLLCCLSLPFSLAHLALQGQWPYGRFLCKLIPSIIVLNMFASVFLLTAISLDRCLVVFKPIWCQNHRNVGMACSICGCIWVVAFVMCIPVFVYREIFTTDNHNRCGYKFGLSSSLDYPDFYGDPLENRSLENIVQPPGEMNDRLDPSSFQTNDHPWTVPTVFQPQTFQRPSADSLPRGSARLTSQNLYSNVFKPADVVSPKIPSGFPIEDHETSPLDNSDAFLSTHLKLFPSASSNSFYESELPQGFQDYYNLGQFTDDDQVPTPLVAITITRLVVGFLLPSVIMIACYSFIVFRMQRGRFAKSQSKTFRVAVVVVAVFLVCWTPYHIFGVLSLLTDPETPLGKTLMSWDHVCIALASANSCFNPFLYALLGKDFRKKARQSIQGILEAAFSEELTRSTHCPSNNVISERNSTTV

[2] = Metabolic clearance in rat liver microsomes; type: ADME, Microsome
[3] = Peak plasma concentration in ovalbumin-induced BALB/c mouse model of airway inflammation at 3 mg/ml aerosol after 30 mins; type: ADME, organism-based; details: inhaled or intranasal
[4] = Permeability from apical to basolateral side in Caco-2 cells; type: ADME, cell-based; details: human, read-out: permeability
CYP3A4 = CYP3A4 (Homo sapiens, UniProt P08684); experiment: Inhibition of CYP3A4 at 50 uM; type: ADME
[5] = Peak plasma concentration in ovalbumin-induced BALB/c mouse model of airway inflammation at 30 mg/kg, ip after 30 mins; type: ADME, organism-based; parameters: dose 30 mg/kg, route intraperitoneal
[6] = Metabolic clearance in rat hepatocytes assessed per 10^6 cells; type: ADME, cell-based, Liver, Hepatocyte
CYP2D6 = CYP2D6 (Homo sapiens, UniProt P10635); experiment: Inhibition of CYP2D6 at 50 uM; type: ADME
[7] = Bioavailability in rats at 1 mg/kg, po; type: ADME, organism-based; details: rat, in vivo
[8] = Bioavailability in rats at 1 mg/kg, […]; type: ADME, organism-based; details: rat, in vivo
[9] = target: T1, C3a anaphylatoxin chemotactic receptor; experiment: Agonist activity at C3a receptor expressed on HMC1 cells; type: functional, cell-based
[10] = target: T1, C3a anaphylatoxin chemotactic receptor; experiment: Antagonist activity at C3aR; type: functional

Chain of CYP2D6 (P10635 whole entry): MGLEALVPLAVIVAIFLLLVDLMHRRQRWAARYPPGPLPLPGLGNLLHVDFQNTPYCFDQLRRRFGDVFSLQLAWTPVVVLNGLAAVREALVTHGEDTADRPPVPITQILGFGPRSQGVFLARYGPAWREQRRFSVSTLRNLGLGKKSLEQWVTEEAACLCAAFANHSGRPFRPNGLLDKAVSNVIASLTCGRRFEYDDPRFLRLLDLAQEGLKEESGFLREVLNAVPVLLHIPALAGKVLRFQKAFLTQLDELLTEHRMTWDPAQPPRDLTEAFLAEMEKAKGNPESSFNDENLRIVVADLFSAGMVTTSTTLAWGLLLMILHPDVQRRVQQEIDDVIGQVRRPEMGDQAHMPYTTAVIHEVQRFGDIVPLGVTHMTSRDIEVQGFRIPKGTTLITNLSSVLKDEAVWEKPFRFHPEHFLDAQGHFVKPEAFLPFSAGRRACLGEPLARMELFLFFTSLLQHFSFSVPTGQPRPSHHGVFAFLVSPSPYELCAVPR
Chain of CYP3A4 (P08684 whole entry): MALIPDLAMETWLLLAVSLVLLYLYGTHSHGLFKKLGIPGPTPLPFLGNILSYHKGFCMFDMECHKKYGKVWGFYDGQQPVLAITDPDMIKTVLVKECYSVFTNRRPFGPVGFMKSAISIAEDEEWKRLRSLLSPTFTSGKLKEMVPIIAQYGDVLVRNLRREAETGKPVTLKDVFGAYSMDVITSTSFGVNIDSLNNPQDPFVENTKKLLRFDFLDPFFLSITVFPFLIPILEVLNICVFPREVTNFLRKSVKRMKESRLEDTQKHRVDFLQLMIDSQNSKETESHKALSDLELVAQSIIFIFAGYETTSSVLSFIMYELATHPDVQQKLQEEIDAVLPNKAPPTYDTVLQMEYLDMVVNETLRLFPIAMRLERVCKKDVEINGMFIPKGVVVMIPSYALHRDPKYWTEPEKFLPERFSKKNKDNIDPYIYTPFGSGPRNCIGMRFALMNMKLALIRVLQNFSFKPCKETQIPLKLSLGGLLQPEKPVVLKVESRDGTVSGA

SMILES	IC50 [1] [nM]	further results
N=C(N)NCCC[C@@H](NC(=O)c1ccc(-c2cc(Cl)ccc2Cl)o1)C(=O)O	1580	
N=C(N)NCCC[C@@H](NC(=O)c1ccc(-c2cccc(F)c2)o1)C(=O)O	316	
N=C(N)NCCC[C@@H](NC(=O)c1ccc(-c2cccc(CO)c2)o1)C(=O)O	794	
Cc1ccc(Cl)cc1-c1ccc(C(=O)N[C@H](CCCN=C(N)N)C(=O)O)o1	794	
N=C(N)NCCC[C@@H](NC(=O)c1ccc(-c2csc3ccccc23)o1)C(=O)O	316	
N=C(N)NCCC[C@@H](NC(=O)c1ccc(C(c2ccccc2)c2ccccc2)cc1)C(=O)O	794	
N=C(N)NCCC[C@H](NC(=O)c1ccc(C(c2ccccc2)c2ccccc2)o1)C(=O)O		microsomal CLint [2]: 4 µL/min/mg; Cmax [3]: 27 ng/mL; Papp A→B [4]: 0.4 ×10⁻⁶ cm/s; inhibition at 50 µM (CYP3A4): 0%; Cmax [5]: 33800 ng/mL; hepatocyte CLint [6]: 5 µL/min/1e6 cells; inhibition at 50 µM (CYP2D6): 12%; bioavailability [7]: < 1%; bioavailability [8]: < 1%
NC(N)=NCCC[C@@H](NC(=O)c1ccc(-c2cccc3c2oc2ccccc23)o1)C(=O)O	3980	
N=C(N)NCCC[C@@H](NC(=O)c1ccc(-c2cccc(Cl)c2)o1)C(=O)O	79.4	EC50 [9]: 501 nM
N=C(N)NCCC[C@@H](NC(=O)c1ccc(-c2cccc(Cl)c2)cc1)C(=O)O	100000	
NC(N)=NCCC[C@@H](NC(=O)c1ccc(-c2ccc(F)c(Cl)c2)o1)C(=O)O	200	
NC(N)=NCCC[C@@H](NC(=O)c1ccc(C(c2ccc(Cl)cc2)c2ccc(Cl)cc2)o1)C(=O)O	158	EC50 [9]: 126 nM
NC(N)=NCCC[C@@H](NC(=O)N1CCN(C(c2ccccc2)c2ccccc2)CC1)C(=O)O	50100	
COc1cccc(-c2ccc(C(=O)N[C@H](CCCN=C(N)N)C(=O)O)o2)c1	316	
Cc1cccc(-c2ccc(C(=O)N[C@H](CCCNC(=N)N)C(=O)O)o2)c1	126	
N#Cc1cccc(-c2ccc(C(=O)N[C@H](CCCNC(=N)N)C(=O)O)o2)c1	200	
NC(N)=NCCC[C@@H](NC(=O)c1cccc(-c2cccc(Cl)c2)c1)C(=O)O	794	EC50 [10]: 3980 nM
N=C(N)NCCC[C@H](NC(=O)COCC(c1ccccc1)c1ccccc1)C(=O)O	501	
N=C(N)NCCC[C@@H](NC(=O)c1ccc(C(c2cccc(F)c2)c2cccc(F)c2)o1)C(=O)O	31.6	EC50 [10]: 1260 nM
N=C(N)NCCC[C@@H](NC(=O)c1ccc(-c2cccc(Cl)c2)s1)C(=O)O	6310	EC50 [10]: 15800 nM
N=C(N)NCCC[C@@H](NC(=O)c1ccc(C(c2cccc(Cl)c2)c2cccc(Cl)c2)o1)C(=O)O	15.8	EC50 [9]: 20 nM
CCOc1cccc(-c2ccc(C(=O)N[C@H](CCCN=C(N)N)C(=O)O)o2)c1	200	
